The target in the first assay is T1, h-TRPA1 (Homo sapiens, UniProt O75762).
T1 construct: expressed in transfected cells; host or cells: CHO cells
T1 sequence (O75762 whole entry): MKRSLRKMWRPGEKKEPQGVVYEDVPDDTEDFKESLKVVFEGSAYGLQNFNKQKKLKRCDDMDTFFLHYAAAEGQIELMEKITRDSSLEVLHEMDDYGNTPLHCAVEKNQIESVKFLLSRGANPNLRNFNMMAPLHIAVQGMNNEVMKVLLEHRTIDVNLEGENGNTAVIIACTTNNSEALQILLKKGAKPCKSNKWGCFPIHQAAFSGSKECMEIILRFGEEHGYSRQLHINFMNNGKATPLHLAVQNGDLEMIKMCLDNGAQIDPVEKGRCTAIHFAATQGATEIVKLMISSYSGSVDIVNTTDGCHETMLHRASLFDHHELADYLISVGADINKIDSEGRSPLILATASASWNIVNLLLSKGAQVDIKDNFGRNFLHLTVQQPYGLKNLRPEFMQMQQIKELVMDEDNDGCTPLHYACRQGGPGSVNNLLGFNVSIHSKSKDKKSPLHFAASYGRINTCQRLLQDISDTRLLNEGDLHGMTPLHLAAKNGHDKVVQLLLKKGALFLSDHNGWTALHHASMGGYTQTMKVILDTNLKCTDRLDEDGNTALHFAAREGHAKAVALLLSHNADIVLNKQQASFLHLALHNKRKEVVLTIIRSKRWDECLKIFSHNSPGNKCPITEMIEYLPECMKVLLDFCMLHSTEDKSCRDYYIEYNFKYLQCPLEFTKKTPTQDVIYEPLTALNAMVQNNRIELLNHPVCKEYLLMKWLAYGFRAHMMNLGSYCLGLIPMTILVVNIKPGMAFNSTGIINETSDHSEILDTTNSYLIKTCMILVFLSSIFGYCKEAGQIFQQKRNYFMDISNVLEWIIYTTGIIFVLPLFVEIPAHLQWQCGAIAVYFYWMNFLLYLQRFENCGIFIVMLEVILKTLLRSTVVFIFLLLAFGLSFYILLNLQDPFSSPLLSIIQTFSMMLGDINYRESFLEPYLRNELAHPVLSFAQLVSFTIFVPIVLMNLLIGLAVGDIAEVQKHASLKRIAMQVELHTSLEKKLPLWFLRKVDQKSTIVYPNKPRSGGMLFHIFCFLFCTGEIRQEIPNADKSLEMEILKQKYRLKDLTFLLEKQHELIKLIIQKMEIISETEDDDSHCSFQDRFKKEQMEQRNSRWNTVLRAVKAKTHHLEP
In words: activation of CHO cells expressing h-TRPA1, calcium imaging. The note with it: concentration (max) tested 1 mM. The class given is cell-based. As to the method:
Several epicatechin metabolites were tested in vitro to determine if any of these compounds are an agonist of the cation channel of TRPA1. Specifically, the activation of CHO cells expressing h-TRPA1 was tested according to the calcium imaging method described in Riera et al. (Riera, C. E., Vogel, H., Simon, S. A., Damak, S., & le Coutre, J. Sensory attributes of complex tasting divalent salts are mediated by TRPM5 and TRPV1 channels. J. Neurosci. 29, 2654-2662 (2009)).
Turning to `COc1cc([C@H]2Oc3cc(O)cc(O)c3C[C@H]2O)ccc1OS(=O)(=O)O` [3′-O-methyl-4′-O-sulfate-EC, 3′-O-methyl-4′-O-sulfate epicatechin], the “Activity vs hTRPA1” value is “Active”.

The same assay, now with this note: concentration (max) tested 3 mM.
`COc1ccc(C2CC(=O)c3c(O)cc(O)cc3O2)cc1O[C@@H]1O[C@H](C(=O)O)[C@@H](O)[C@H](O)[C@H]1O` (stereo partly drawn) [Hesperetin-3-O-Glucuronide]: the “Activity vs hTRPA1” value is listed as “Inactive”. Consider Hesperetin-4-O-Glucuronide, for which the “Activity vs hTRPA1” value is “Inactive”. As to Hesperetin-7-3-O-Glucuronide, the “Activity vs hTRPA1” value is reported as “Inactive”.

The same assay, now with this note: concentration (max) tested 100 mM.
`COc1cc([C@H]2Oc3cc(OS(=O)(=O)O)cc(O)c3C[C@H]2O)ccc1O` [3′-O-methyl-7-O-sulfate-EC]: the “Activity vs hTRPA1” value is recorded as “Inactive”. As to `COc1cc([C@H]2Oc3cc(O)cc(O)c3C[C@H]2O)ccc1O` [3′-O-methyl-EC], the “Activity vs hTRPA1” value is reported as “Inactive”.

Take `O=S(=O)(O)Oc1cc([C@H]2Oc3cc(O)cc(O)c3C[C@H]2O)ccc1O` [3′-O-sulfate-EC]: the “Activity vs hTRPA1” value is on record as “Inactive”. With `COc1ccc([C@H]2Oc3cc(O)cc(O)c3C[C@H]2O)cc1O` [4′-O-methyl-EC], the “Activity vs hTRPA1” value is “Inactive”.

As for `O=S(=O)(O)Oc1ccc([C@H]2Oc3cc(O)cc(O)c3C[C@H]2O)cc1O` [4′-O-sulfate-EC], the “Activity vs hTRPA1” value is given as “Inactive”.

The values above are taken from patent US20210196671A1, “COMPOSITIONS COMPRISING 3'-O-METHYL-4'-O-SULFATE EPICATECHIN AND THERAPEUTIC USES OF SUCH COMPOSITIONS” (SOCIÉTÉ DES PRODUITS NESTLÉ S.A., priority 2016, published 2021).
